For eight molecules, IC50 results are on record in patent US7977362B2, “Alpha-(N-benzenesulfonamido)cycloalkyl derivatives” (Bristol-Myers Squibb Company, priority 2009, dated 2011).

Structures are written as SMILES. Some results are limits rather than exact numbers.

In one assay the test system is Aβ formation (γ-secretase) in H4 cells stably transfected to overexpress the HPLAP-APP fusion protein. Kind of assay: In vitro assay based on the inhibition of Aβ formation in cultured cells. The assay is classed as cell-based, human. Particulars: Homo sapiens, 18 h, H4 cells overexpressing HPLAP-APP, 18 hrs incubation at 37° C., Aβ in supernatant by time-resolved fluorescence; class symbols. As to the method:
Cultured human cell lines, such as HEK293 and H4 cells, which express APP and γ-secretase activity or transfected derivative cell lines that overexpress wild-type APP, mutant APP, or APP fusion proteins will secrete Aβ peptides into the culture media that can be quantified as previously outlined (Dovey, H. et al., J. Neurochem., 76:173-181 (2001)). The incubation of these cultured cells with γ-secretase inhibitors decreases the production of Aβ peptides. For instance, H4 cells stably transfected to overexpress the HPLAP-APP fusion protein described above were grown as above, detached, and adjusted to 2×10^5 cells/ml. 100 μl of the resulting suspension was then added to each well of a 96-well plate. After 4 hrs, the media was removed and replaced with 100 μl serum-free media containing various dilutions of the test compound. Plates were then incubated for 18 hrs at 37° C. and a 100 μl aliquot of the tissue culture supernatant was removed for determination of Aβ levels using time-resolved fluorescence of the homogenous sample as outlined above. Alternately, the other methods described above for Aβ determination could be used. The extent of Aβ inhibition was used to calculate the IC50 value for the test compound.
In the table, an inhibitory concentration (IC50) of less than or equal to 50 nM is represented by +++; between 50 nM and 500 nM by ++; between 500 nM and 5000 nM by +.
With `O=S(=O)(c1ccc(C(F)(F)F)nc1)N(Cc1cc(F)c(-c2ncon2)cc1F)[C@@H]1CCCC[C@H]1CO` [Compound 26, N-(2,5-Difluoro-4-(1,2,4-oxadiazol-3-yl)benzyl)-N-((1R,2R)-2-(hydroxymethyl)cyclohexyl)-6-(trifluoromethyl)pyridine-3-sulfonamide], the IC50 was at most 50 nM. `O=S(=O)(c1ccc(C(F)(F)F)nc1)N(Cc1ccc(-c2ncco2)c(F)c1F)[C@@H]1CCCC[C@H]1CO` (relative stereo) [Compound 27, N-(2,3-Difluoro-4-(oxazol-2-yl)benzyl)-N-(trans-2-(hydroxymethyl)cyclohexyl)-6-(trifluoromethyl)pyridine-3-sulfonamide] yielded an IC50 of at most 50 nM. Same read-out and setting: the same measure for `O=S(=O)(c1ccc(Cl)s1)N(Cc1ccc(-c2ncon2)cc1)[C@@H]1CCCC[C@H]1CO` (relative stereo) [Compound 12, N-(4-(1,2,4-Oxadiazol-3-yl)benzyl)-5-chloro-N-(trans-2-(hydroxymethyl)cyclohexyl)thiophene-2-sulfonamide]: at most 50 nM; for `O=S(=O)(c1ccc(Cl)cc1)N(Cc1ccc(-c2ncco2)cc1)[C@@H]1CCC[C@H]1CO` (relative stereo) [Compound 1, 4-Chloro-N-(trans-2-(hydroxymethyl)cyclopentyl)-N-(4-(oxazol-2-yl)benzyl)benzenesulfonamide]: 50 to 500 nM; for `O=S(=O)(c1ccc(Cl)cc1)N(Cc1ccc(-c2ncco2)cc1F)[C@@H]1CCCC[C@H]1CF` [Compound 22, 4-Chloro-N-(2-fluoro-4-(oxazol-2-yl)benzyl)-N-((1R,2R)-2-(fluoromethyl)cyclohexyl)benzenesulfonamide]: at most 50 nM. Same read-out and setting: under `O=S(=O)(c1ccc(Cl)cc1)N(Cc1ccc(-c2ncco2)cc1F)[C@@H]1CCCC[C@H]1CO` [Compound 19, 4-Chloro-N-(2-fluoro-4-(oxazol-2-yl)benzyl)-N-((1R,2R)-2-(hydroxymethyl)cyclohexyl)benzenesulfonamide] stands at most 50 nM.

Staying with this assay, now noted: Homo sapiens, 18 h, H4 cells overexpressing HPLAP-APP, 18 hrs incubation at 37° C., Aβ in supernatant by time-resolved fluorescence; numeric values.
The molecule `O=S(=O)(c1ccc(Cl)cc1)N(Cc1ccc(-c2ncon2)cc1)C1CC2CCC1C2O` (centres unmarked) [Compound 35, N-(4-(1,2,4-Oxadiazol-3-yl)benzyl)-N-(7-hydroxybicyclo[2.2.1]heptan-2-yl)-4-chlorobenzenesulfonamide] had an IC50 of 3240 nM. Still for that read-out and setting: under `O=S(=O)(c1ccc(Cl)cc1)N(Cc1ccc(-c2ncco2)cc1)C1(CO)CCCCC1` [Compound 36, 4-Chloro-N-(1-(hydroxymethyl)cyclohexyl)-N-(4-(oxazol-2-yl)benzyl)benzenesulfonamide] stands 346 nM.

As usually defined, the IC50 is the midpoint of a concentration-inhibition curve. A high value points to a need for much substance.
